Tested on: 276233-004-R-J1-PDC complex spheroid viability
Experiment: Anticancer human tumor 276233-004-R-J1-PDC patient-derived colon adenocarcinoma cell line growth inhibition [GQUAD]
Conditions: for IC50: curve of first compound; for viability, T/C: stronger effect = lower value
In short: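 Viability of tumor cells grown as complex spheroids with endothelial and stromal cells, exposed to drug combinations. Top concentration at or near clinical Cmax (else 10 microM), diluted in half-log increments.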

[1] = second compound 0.0316 µM, first compound 0.0316 µM
[2] = second compound 0.0316 µM, first compound 0.316 µM
[3] = second compound 0.1 µM, first compound 0.0316 µM
[4] = second compound 0.1 µM, first compound 0.316 µM
[5] = second compound 0.316 µM, first compound 0.0316 µM
[6] = second compound 0.316 µM, first compound 0.316 µM
[7] = second compound 1 µM, first compound 0.0316 µM
[8] = second compound 1 µM, first compound 0.316 µM
[9] = second compound 3.16 µM, first compound 0.0316 µM
[10] = second compound 3.16 µM, first compound 0.316 µM
[11] = second compound 10 µM, first compound 0.0316 µM
[12] = second compound 10 µM, first compound 0.316 µM
[13] = second compound 0.0316 µM, first compound 0.1 µM
[14] = second compound 0.0316 µM, first compound 1 µM
[15] = second compound 0.0316 µM, first compound 3.16 µM
[16] = second compound 0.0316 µM, first compound 10 µM
[17] = second compound 0.1 µM, first compound 0.1 µM
[18] = second compound 0.1 µM, first compound 1 µM
[19] = second compound 0.1 µM, first compound 3.16 µM
[20] = second compound 0.1 µM, first compound 10 µM
[21] = second compound 0.316 µM, first compound 0.1 µM
[22] = second compound 0.316 µM, first compound 1 µM
[23] = second compound 0.316 µM, first compound 3.16 µM
[24] = second compound 0.316 µM, first compound 10 µM
[25] = second compound 1 µM, first compound 0.1 µM
[26] = second compound 1 µM, first compound 1 µM
[27] = second compound 1 µM, first compound 3.16 µM
[28] = second compound 1 µM, first compound 10 µM
[29] = second compound 3.16 µM, first compound 0.1 µM
[30] = second compound 3.16 µM, first compound 1 µM
[31] = second compound 3.16 µM, first compound 3.16 µM
[32] = second compound 3.16 µM, first compound 10 µM
[33] = second compound 10 µM, first compound 0.1 µM
[34] = second compound 10 µM, first compound 1 µM
[35] = second compound 10 µM, first compound 3.16 µM
[36] = second compound 10 µM, first compound 10 µM
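Also: spheroids exposed to drugs for seven days.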
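For viability, T/C in this document: 100% = DMSO vehicle control viability.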

`Cc1[nH]c2ccccc2c1CCNCc1ccc(/C=C/C(=O)NO)cc1` + CN(C)c1ccc(Nc2c3ccc(NC(=O)CCN4CCCC4)cc3nc3cc(NC(=O)CCN4CCCC4)ccc23)cc1 gave an IC50 (second compound 0.0316 µM) of 178 nM, an IC50 (second compound 0.1 µM) of 169 nM and an IC50 (second compound 0.316 µM) of 166 nM. The IC50 (second compound 1 µM) was 47.7 nM, the IC50 (second compound 3.16 µM) was under 0.999 nM and the IC50 (second compound 10 µM) was under 0.999 nM. It also gave a viability, T/C (second compound 0.0316 µM, first compound 0.000999 µM) of 99.1%, a viability, T/C (second compound 0.0316 µM, first compound 0.00316 µM) of 79% and a viability, T/C (second compound 0.0316 µM, first compound 0.00999 µM) of 80.2%. The viability, T/C [1] was 84%, the viability, T/C (second compound 0.0316 µM, first compound 0.0999 µM) was 77.5% and the viability, T/C [2] was 23.2%. It also gave a viability, T/C (second compound 0.1 µM, first compound 0.000999 µM) of 87.7%, a viability, T/C (second compound 0.1 µM, first compound 0.00316 µM) of 90.7% and a viability, T/C (second compound 0.1 µM, first compound 0.00999 µM) of 60.1%. It also gave a viability, T/C [3] of 71.3%, a viability, T/C (second compound 0.1 µM, first compound 0.0999 µM) of 79% and a viability, T/C [4] of 17.2%. It also gave a viability, T/C (second compound 0.316 µM, first compound 0.000999 µM) of 57.8%, a viability, T/C (second compound 0.316 µM, first compound 0.00316 µM) of 78.7% and a viability, T/C (second compound 0.316 µM, first compound 0.00999 µM) of 59.6%. The viability, T/C [5] was 50%, the viability, T/C (second compound 0.316 µM, first compound 0.0999 µM) was 85% and the viability, T/C [6] was 29.6%. The viability, T/C (second compound 1 µM, first compound 0.000999 µM) was 58.2%, the viability, T/C (second compound 1 µM, first compound 0.00316 µM) was 54.2% and the viability, T/C (second compound 1 µM, first compound 0.00999 µM) was 47.9%. The viability, T/C [7] was 64.3%, the viability, T/C (second compound 1 µM, first compound 0.0999 µM) was 38.9% and the viability, T/C [8] was 21.8%. For the same molecule, the viability, T/C (second compound 3.16 µM, first compound 0.000999 µM) was 45.3%, the viability, T/C (second compound 3.16 µM, first compound 0.00316 µM) was 47.9% and the viability, T/C (second compound 3.16 µM, first compound 0.00999 µM) was 42.6%. For the same molecule, the viability, T/C [9] was 40.3%, the viability, T/C (second compound 3.16 µM, first compound 0.0999 µM) was 28.1% and the viability, T/C [10] was 8.05%. For the same molecule, the viability, T/C (second compound 10 µM, first compound 0.000999 µM) was 29.1%, the viability, T/C (second compound 10 µM, first compound 0.00316 µM) was 39.6% and the viability, T/C (second compound 10 µM, first compound 0.00999 µM) was 38.8%. It also gave a viability, T/C [11] of 29.3%, a viability, T/C (second compound 10 µM, first compound 0.0999 µM) of 34% and a viability, T/C [12] of 3.25%.
With `O=C(c1cc(Cc2n[nH]c(=O)c3ccccc23)ccc1F)N1CCN(C(=O)C2CC2)CC1` + Cc1cnc(CNC(=O)c2c(=O)c3ccc(N4CCCN(C)CC4)nc3n3c2sc2ccccc23)cn1 the IC50 (second compound 0.0316 µM) was over 10000 nM, the IC50 (second compound 0.1 µM) was over 10000 nM and the IC50 (second compound 0.316 µM) was over 10000 nM. For the same molecule, the IC50 (second compound 1 µM) was over 10000 nM, the IC50 (second compound 3.16 µM) was over 10000 nM and the IC50 (second compound 10 µM) was over 10000 nM. It also gave a viability, T/C [1] of 80.1%, a viability, T/C [13] of 85% and a viability, T/C [2] of 89.3%. The viability, T/C [14] was 79.3%, the viability, T/C [15] was 90.8% and the viability, T/C [16] was 91.6%. For the same molecule, the viability, T/C [3] was 81.1%, the viability, T/C [17] was 92.8% and the viability, T/C [4] was 82.2%. For the same molecule, the viability, T/C [18] was 83.8%, the viability, T/C [19] was 85.5% and the viability, T/C [20] was 83%. For the same molecule, the viability, T/C [5] was 96%, the viability, T/C [21] was 91.4% and the viability, T/C [6] was 83.4%. For the same molecule, the viability, T/C [22] was 81.8%, the viability, T/C [23] was 96.7% and the viability, T/C [24] was 73.5%. It also gave a viability, T/C [7] of 69.9%, a viability, T/C [25] of 77.1% and a viability, T/C [8] of 91.2%. For the same molecule, the viability, T/C [26] was 75.5%, the viability, T/C [27] was 83.8% and the viability, T/C [28] was 67.3%. For the same molecule, the viability, T/C [9] was 76.9%, the viability, T/C [29] was 70% and the viability, T/C [10] was 61.1%. It also gave a viability, T/C [30] of 68.4%, a viability, T/C [31] of 77.2% and a viability, T/C [32] of 72.7%. The viability, T/C [11] was 74.5%, the viability, T/C [33] was 68.1% and the viability, T/C [12] was 80.2%. The viability, T/C [34] was 62.5%, the viability, T/C [35] was 77.8% and the viability, T/C [36] was 53.2%.
`CC1COCCN1c1cc(C2(O)CC3CCC(C2)O3)c2cnn(-c3ccn[nH]3)c2n1` (stereo unspecified) + Cc1cnc(CNC(=O)c2c(=O)c3ccc(N4CCCN(C)CC4)nc3n3c2sc2ccccc23)cn1 was tested, and the IC50 (second compound 0.0316 µM) was 3100 nM, the IC50 (second compound 0.1 µM) was 3560 nM and the IC50 (second compound 0.316 µM) was 1470 nM. For the same molecule, the IC50 (second compound 1 µM) was 1020 nM, the IC50 (second compound 3.16 µM) was 642 nM and the IC50 (second compound 10 µM) was 271 nM. For the same molecule, the viability, T/C [1] was 81%, the viability, T/C [13] was 61.9% and the viability, T/C [2] was 79.2%. It also gave a viability, T/C [14] of 50.7%, a viability, T/C [15] of 52.1% and a viability, T/C [16] of 40.3%. For the same molecule, the viability, T/C [3] was 79.7%, the viability, T/C [17] was 80.7% and the viability, T/C [4] was 60.6%. It also gave a viability, T/C [18] of 63.5%, a viability, T/C [19] of 56.3% and a viability, T/C [20] of 35.8%. For the same molecule, the viability, T/C [5] was 71.1%, the viability, T/C [21] was 85.3% and the viability, T/C [6] was 62.6%. For the same molecule, the viability, T/C [22] was 50.6%, the viability, T/C [23] was 48.7% and the viability, T/C [24] was 32.9%. For the same molecule, the viability, T/C [7] was 68.8%, the viability, T/C [25] was 75% and the viability, T/C [8] was 50.4%. For the same molecule, the viability, T/C [26] was 50%, the viability, T/C [27] was 44.6% and the viability, T/C [28] was 24.9%. It also gave a viability, T/C [9] of 55.7%, a viability, T/C [29] of 59.7% and a viability, T/C [10] of 56.4%. For the same molecule, the viability, T/C [30] was 44.8%, the viability, T/C [31] was 35.9% and the viability, T/C [32] was 24.6%. For the same molecule, the viability, T/C [11] was 63.2%, the viability, T/C [33] was 60.1% and the viability, T/C [12] was 46.9%. For the same molecule, the viability, T/C [34] was 41.7%, the viability, T/C [35] was 35.6% and the viability, T/C [36] was 20%.

— PubChem BioAssay AID2060496 (Molecular Pharmacology Branch, DTP, NCI, 2025)
